Test results as given in PubChem BioAssay (NCI).
Where “and” joins values, the source holds several entries; their conditions need not be identical. Equal entries are not always repeated.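 Method: 48-hour compound exposure of cells in 96-well plates, five concentrations, linear interpolation of endpoints. GI50 = concentration required for 50% inhibition of growth. TGI is the concentration that stops growth completely.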

What was measured:
Assay in all cases: NCI-60 cell line screen, 48 h
[1] = test system: CCRF-CEM leukemia
[2] = test system: HCC-2998 colon
[3] = test system: HT29 colon
[4] = test system: IGROV1 ovarian
[5] = test system: MCF7 breast
[6] = test system: NCI-H23 lung
[7] = test system: OVCAR-3 ovarian
[8] = test system: PC-3 prostate
[9] = test system: RPMI-8226 leukemia
[10] = test system: SW-620 colon

| SMILES | TGI [1] | TGI [2] | TGI [3] | TGI [4] | TGI [5] | TGI [6] | TGI [7] | TGI [8] | TGI [9] [µM] | TGI [10] | GI50 [1] [µM] | GI50 [2] [µM] | GI50 [3] [µM] | GI50 [5] [µM] | GI50 [6] [µM] | GI50 [7] [µM] | GI50 [8] [µM] | GI50 [9] [µM] | GI50 [10] [µM] | GI50 [4] [µM] |
| --- | --- | --- | --- | --- | --- | --- | --- | --- | --- | --- | --- | --- | --- | --- | --- | --- | --- | --- | --- | --- |
| CCc1[nH]c(=O)nc(N)c1-c1ccc(N2CCCCC2)c([N+](=O)[O-])c1 | > 100 µM | > 100 µM | > 100 µM | > 100 µM | > 100 µM | > 100 µM | > 100 µM | > 100 µM | > 100 | > 100 µM | – | – | – | – | – | – | – | – | – | – |
| CCOC(=O)c1c(CN2CCN(c3ccccc3)CC2)n(-c2ccccc2)c2cc(Br)c(O)cc12 | > 100 µM | 32.5 µM | 32.5 µM | – | 47.5 µM | 38.3 µM | 32.1 µM | 13.3 µM | > 100 | 48 µM | 0.0602 | 15.7 | 11.8 | 4.01 | 14.9 | 13 | 3.21 | 3.61 | 6.32 | – |
| CCN(CC)c1ccc(C(=N)c2ccc(N(CC)CC)cc2)cc1 | 9.3 µM | 3.17 µM | 2.83 µM | 4.43 µM | 1.78 µM | 0.925 µM | 0.995 µM | 4.76 µM | 2.42 | 1.5 µM | 0.741 | 1.1 | 0.319 | 0.349 | 0.26 | 0.27 | 0.492 | 0.358 | 0.346 | 0.565 |
| O=C(N/N=C/c1cccc(O)c1O)c1ccccc1 | > 59.7 µM | > 100 µM | > 100 µM | > 100 µM | > 100 µM | > 100 µM | > 100 µM | > 100 µM | > 100 | > 100 µM | 0.244 | 3.2 | 4.9 | 0.357 | 0.992 | 0.369 | 0.725 | 1.3 | 0.635 | 3.49 |
| O=C(Nc1ccc(Cl)cc1)c1cc(-c2ccc(F)cc2)c2sc(=O)[nH]c2n1 | 9.9 µM | 10.9 µM | 11.4 µM | 7.06 µM | 11.3 µM | 5.79 µM | 11.4 µM | 13.3 µM | 2.22 | 16.2 µM | 0.657 | 2.25 | 3.02 | 1.31 | 1.19 | 0.944 | 0.65 | 0.391 | 3.01 | 1.78 |
| CCOC(=O)Sc1ncnc2nc[nH]c12 | 13.4 µM | > 100 µM | > 100 µM | > 100 µM | > 100 µM | > 100 µM | > 100 µM | > 100 µM | – | > 100 µM | 0.629 | 3.13 | 3.07 | 0.616 | 3.93 | 0.474 | 4.07 | – | 3.89 | 6.69 |
| NC(=S)N/N=C/c1ccc(OC(=O)COc2ccc(Cl)cc2)cn1 | > 100 µM | > 100 µM | > 100 µM | > 100 µM | > 100 µM | > 100 µM | – | > 100 µM | > 100 | > 100 µM | 2.73 | 8.46 | 7.19 | 3.71 | 3.67 | – | 4.67 | 7.31 | 3.29 | 16.4 |
| CC1CN1CC(O)C(O)CN1CC1C (stereo not drawn) | > 100 µM | 23.4 µM | 19.7 µM | 42.2 µM | 36.6 µM | > 75.4 µM | 10.7 µM | > 78.4 µM | > 88.6 | > 62 µM | 1.41 | 6.21 | 2.87 | 0.427 | 2.37 | 2.52 | 12.5 | 8.86 | 2.47 | 4.09 |
| c1ccc(C2=NNC3c4ccccc4-c4ccccc4N3C2)cc1 (stereo not drawn) | – | – | > 100 µM | > 100 µM | > 100 µM | 67.8 µM | > 100 µM | 65.5 µM | 57.8 | > 100 µM | – | – | – | – | – | – | – | – | – | – |
| CCC1(O)C(=O)OCc2c1cc1n(c2=O)Cc2cc3ccc(C=O)cc3nc2-1 (stereo not drawn) | 0.37 µM and 1.14 µM | 10.4 µM and 26.1 µM | 16.5 µM and > 89 µM | 20 µM and 50.7 µM | 50 µM and 10.6 µM | 2.71 µM and 16.7 µM | 30.6 µM and 23.4 µM | 50 µM and > 100 µM | 30.4 | 50 µM and > 100 µM | 0.052 | 2.52 | – | 0.187 | 0.816 | 5.05 | – | – | – | 5.11 |
| NCCCC[C@@H]1NC(=O)[C@H]2CCCN2C(=O)[C@H](Cc2ccccc2)NC(=O)[C@H](Cc2ccccc2)CNC1=O | > 100 µM | > 100 µM | > 100 µM | > 100 µM | > 100 µM | > 100 µM | > 100 µM | > 100 µM | > 100 | > 100 µM | > 100 | > 100 | > 100 | > 100 | > 100 | > 100 | > 100 | > 100 | > 100 | > 100 |
| NC(CC(=O)OCc1ccccc1)C(=O)OCc1ccccc1 (stereo not drawn) | > 100 µM | 89.1 µM | – | > 100 µM | > 100 µM | > 100 µM | > 100 µM | > 100 µM | > 100 | > 100 µM | – | – | – | – | – | – | – | – | – | – |
| O=C1c2ccccc2-c2c1c1ccccc1c(=O)n2Cc1ccccc1 | > 100 µM | – | > 100 µM | > 100 µM | > 100 µM | > 100 µM | > 100 µM | > 100 µM | > 100 | > 100 µM | – | – | – | – | – | – | – | – | – | – |
| O=C(CCl)Nc1ccc(Cl)cc1 | – | 24.9 µM | 4.26 µM | 5.04 µM | 4.54 µM | 14.3 µM | 3.62 µM | 23.7 µM | 9.45 | 11.2 µM | – | 11.3 | 2.03 | 1.78 | 3.29 | 1.88 | 7.36 | 3.14 | 3.45 | 2.11 |
| COC(=O)C(=O)C(C(=O)C(=O)Nc1ccccc1C(N)=O)c1nc2ccc(Cl)cc2[nH]c1=O (stereo not drawn) | > 100 µM | > 100 µM | > 100 µM | – | > 100 µM | > 100 µM | > 100 µM | > 100 µM | > 100 | > 100 µM | – | – | – | – | – | – | – | – | – | – |
| Fc1cc(F)c(COc2cc(Cn3cnc4c(Cl)nc(Cl)nc43)ccc2C23CC4CC(CC(C4)C2)C3)cc1F | 4.52 µM | 33.5 µM | 62.5 µM | 27.5 µM | 27.5 µM | – | 30.2 µM | 33.8 µM | – | 29.3 µM | 1.91 | 18.7 | 23.6 | 11 | – | 15.6 | 19.3 | – | 12.3 | 13.2 |
| CC(=O)OC1Oc2ccccc2-c2oc(=O)c(-c3cc4ccc(N(C)C)cc4oc3=O)cc21 (stereo not drawn) | 24.2 µM | – | > 100 µM | 36.9 µM | 29.8 µM | 23.7 µM | 23.2 µM | 32.6 µM | 15 | > 100 µM | 2.89 | – | 22 | 10.2 | 10.6 | 10.1 | 10.5 | 0.392 | 20.6 | 14.6 |
| NC(N)=NCCCn1c2c(c3ccccc3c1=O)C(=O)c1ccccc1-2 | > 100 µM | 15.8 µM | > 100 µM | 22.6 µM | 25.1 µM | – | 45.4 µM | > 100 µM | > 100 | 31 µM | 19.9 | 3.6 | 32.6 | 7.27 | – | 18.3 | 52.1 | 42.7 | 14.5 | 10.6 |
| CCN(CC)CCCC(C)Nc1c(C)cnc2cc(Cl)c(C)cc12 (stereo not drawn) | 34.8 µM | – | > 24.8 µM | 74.7 µM | 35.3 µM | 23.9 µM | 27.4 µM | 26.4 µM | 9.82 | 25.7 µM | 8.66 | – | 2.72 | 16.2 | 11.5 | 10.1 | 9.69 | 2.38 | 10.6 | 25.9 |
| CCOC(=O)c1cc(/C(=N\O)c2cc(OC)c(OC)c(OC)c2)n2cc(C)cc(C)c12 | – | > 100 µM | > 100 µM | > 100 µM | > 100 µM | > 100 µM | 4.33 µM | > 100 µM | 5.79 | > 100 µM | – | 5.78 | 3.08 | 1.93 | 2.81 | 1.74 | 3.33 | 2.46 | 2.56 | 3.21 |
| CN(C)CCNC(=O)c1cccc(C(=O)Nc2ccccc2)c1[N+](=O)[O-] | > 100 µM | > 100 µM | > 100 µM | > 100 µM | > 100 µM | > 100 µM | > 100 µM | > 100 µM | – | > 100 µM | – | – | – | – | – | – | – | – | – | – |
| O=C1NC(=O)c2ccc([N+](=O)[O-])c3cccc1c23 | – | 52.3 µM | 39.3 µM | 31 µM | 27.9 µM | 33.7 µM | – | 32 µM | 37.7 | 25.7 µM | – | – | – | – | – | – | – | – | – | – |
